Data reported in patent US12478677B2, “Tunable luminescent organic salts for enhanced imaging and photodynamic therapy” (BOARD OF TRUSTEES OF MICHIGAN STATE UNIVERSITY, priority 2017, dated 2025).
Entries after “also recorded” stand apart in the source; their conditions may differ. Read-outs that look alike come from different tables or passages of the source.

Columns and labels:
A549 cells = experiment: Viability studies (trypan blue staining and cell counting) with or without IR excitation; assay type: cell-based, human; conditions: for Concentration at which cytotoxic: cells, toxic at low concentration, even without IR light; for IC50: linear regression analysis; for Phototoxicity with IR excitation, in words: IR (850 nm) excitation; for Toxicity in words, dark and light: with or without IR (850 nm) excitation; for Toxicity in the dark, in words: without IR excitation
Protocol: The cell lines human lung carcinoma (A549), metastatic human melanoma (WM1158) and Vemurafenib-resistant melanoma (Sk-Mel-28-Vem^R) are used. Sk-Mel-28-Vem^R is generated by culturing a parental melanoma cell lines in the presence of 2 μM Vemurafenib for 2 months. Acquired Vemurafenib resistance is defined by >1 log change in IC50 between nonresistant and resistant cell lines. Resistance is maintained through media supplementation with 2 μM Vemurafenib, which is changed every 48 hours. All cells are cultured in DMEM without pyruvate with 10% heat inactivated fetal bovine serum supplemented with glutamine and penicillin/streptomycin, and incubated in 37° C. with 5% CO2.
A549 and WM1158 cells are seeded at a density of 50,000 cells per well in 6-well tissue culture plates. After 24 hours of incubation, media is aspirated and replaced with media containing luminescent dyes at indicated concentrations. Each well is irradiated with an 850 nm LED lamp with an illumination rate of 526 mW/cm^2 for an hour in the incubator, and control cells are left in a dark incubator without irradiation. For studies with Cy7, a 740 nm LED lamp is used instead of an 850 nm, but with a similar illumination flux. Immediately after irradiation, the media is replenished with fresh dye-laced media and allowed to incubate for another 24 hours. […] Viable cell number is determined at 24 and 96 hours using trypan blue staining and a Nexcelom Cellometer Auto T4 cell counter. All assays are done with 3 biological replicates. The fold change in cell proliferation over days of treatment was calculated using the following equation.

[1] = Absorption and emission spectra; assay type: physicochemical
Protocol: FIGS. 8A-8F. Non-toxic cation-anion pair enhances live cell IR fluorescence imaging. FIG. 8A is a graph showing tunable organic salts absorb and emit in the IR (700-1200 nm) and eliminate background noise from absorbance/emission tissue components such as melanin, water, oxyhemoglobin (Hb-O2) and hemoglobin (Hb). […] A549 cells were incubated with vehicle, 1 μM CyPF6, or 1 μM CyTPFB with or without IR (850 nm) excitation. Cell viability determined by trypan blue staining and cell counting. (D) CyTPFB staining in A549 cells. (E) DNA staining using 4',6-diamidino-2-phenylindole (DAPI). (F) Superimposed CyTPFB+DAPI staining. Effective fluorescence dyes must be non-toxic for live cell imaging. […] Further developed are luminescent dyes that absorb and emit in the optical tissue window for imaging without background absorption/emission from components of tissue such as water, hemoglobin, and melanin, as shown in FIG. 8A. Heptamethine cyanine (Cy^+) is a photoactive cation that absorbs and emits in IR wavelengths, with an excitation/emission maximum of 830/848 nm, as shown in FIG. 8B. The deeper excitation and emission of Cy^+ provide an advantage over Cy7 (excitation/emission maximum of 750/773 nm), allowing imaging at greater tissue depths. […] Imaging live cells with these toxic cation-anion pairs requires usage of low doses that result in low absorbance and emission, resulting in poor quality images. […] CyTPFB is non-toxic to cells even at greater than 20-fold higher concentrations of 20 μM. The non-toxic nature of CyTPBF allows use of high doses in eukaryotic and prokaryotic cells for enhanced IR imaging with greater brightness, as shown in FIGS. 8D-8F for a eukaryotic cell example.

mitochondrial superoxide = experiment: MitoSOX measurement of mitochondrial superoxide; assay type: cell-based, human; conditions: A549 cells treated 4 days at phototoxic concentrations; with or without light
Excerpt: FIG. 22. Luminescent organic salts generate mitochondrial ROS. […] MitoSOX is used to measure mitochondrial superoxide, and H2DCFDA for general cytoplasmic ROS in A549 cell treated with organic salts at indicated phototoxic concentrations for 4 days.
Photoactive agents accumulate in the mitochondria of cancer cells and generate reactive oxygen species (ROS) with light exposure, depolarizing the mitochondrial membrane potential to cause cell death. Small molecule protective agents that quench ROS have been used to decrease their phototoxicity. However, the exact type of ROS generated by each luminescent agent remains unclear. Photo-induced ROS include singlet oxygen, superoxide radical anion, hydrogen peroxide, hydroxyl radical and others (see FIG. 21). Superoxide is a highly reactive and biologically toxic species deployed in nature to kill invading organisms. It is often formed as a byproduct of mitochondrial respiration but is typically quenched by the highly efficient superoxide dismutase. Hydroxyl radicals are also highly reactive, damaging nearly all forms of biological molecules. Unlike superoxide radical, the hydroxyl radical cannot be easily quenched naturally via enzymes, and endogenous antioxidants are typically required. Singlet oxygen is the excited state of the common triplet oxygen (O2 ground state) and is highly reactive towards organic compounds. Singlet oxygen can be eliminated in mammalian systems by antioxidants. A range of nitroxy radicals can subsequently stem from superoxide (peroxynitrite) or peroxide (nitrogen dioxide) species. […] Each luminescent cation-anion pair generates specific ROS resonant with its own energy level, and cell types can be targeted by generating the key sensitizing ROS. For example, it is expected that CyFPhB is phototoxic (see FIGS. 11A and 11B and 12A and 12B) by generating reactive oxygen species, which can be resonant with its molecular orbital energy levels (FIG. 21). […] No cytoplasmic ROS is detected using general cytoplasmic ROS probe H2DCFDA. […]

[2] = Salt integrity and aggregation in cell media (mass spectrometry, electron microscopy, UV-Vis); assay type: physicochemical; conditions: for Integrity of salt pairing in cellular environments: high resolution mass spectrometry, electron microscopy, UV-Vis spectroscopy
Excerpt: FIGS. 7A-7C. […] Organic salts were first dissolved in DMSO and then diluted in water, forming nanoparticles. […] Combinations of H- and J-aggregation of organic salts can be seen by blue-shifted peaks (lower wavelength) and red-shifted peaks (higher wavelength), respectively. The nanoparticles with small hard anions redissolve in cell media likely due to sterics. […] This is achieved by cation-anion pairs of luminescent organic salts that can be modulated to be either non-toxic for enhanced imaging, or phototoxic for improved PDT. […] IR polymethine cyanine dyes, which have been used as effective theranostics are described. […] This is thought to occur through a mechanism mitigated by tumor vascularization, increased retention in cancer cells, and mitochondrial depolarization. Once in the cell, they accumulate in the mitochondria and lysosomes, where irradiation induces generation of cytotoxic oxygen species. A strategy is described for preventing or inhibiting salt dissociation in cells: aggregates are formed via introduction of the salt into an aqueous media by a solvent vehicle, forming particles with diameters of about 5 nm in size with no precipitation observed. […] This is confirmed by high resolution mass spectrometry, electron microscopy, and UV-Vis spectroscopy. […] Normalized absorption data are sown in FIGS. 7A, 7B, and 7C. This is likely due to steric effects, where if the counterion radius is too small it is not able to protect the nanoparticle stability. This can be characterized by the volume-averaged effective spherical radius of the counterions, where the cutoff is at about 0.275 nm.

[3] = In vivo imaging, organ and tumor localization in orthotopic breast cancer mouse model; conditions: 1 mg/kg intraperitoneal, after 72 hours
Protocol: Mice are dosed with 1 mg/kg of organic salt in PBS (phosphate buffered saline) via intraperitoneal injection. Live imaging is performed by anesthetizing the mice with 3% isofluorane and using a Leica M165FC microscope with a PE4000 LED light source, DFC9000GT camera, and LAS X imaging software. For internal imaging, mice are sacrificed once tumors reach a size of 20 mm^3 and organs of interest are retrieved and imaged using the system described previously.

[4] = A549 cells, 850 nm irradiation, read-out: IC50 850 nm
[5] = A549 cells, dark, no irradiation, read-out: IC50 Dark

C[N+]1=C(C=CC2=CC(=CC=C3N(CCCCCC(=O)ON4C(=O)CCC4=O)c4ccccc4C3(C)C)CCC2)C(C)(C)c2ccccc21.[Cl-] [Cy7, Cyanine7 NHS ester, reference compound]
Toxicity of Cy7 salts, in words (A549 cells; A549 cells, with or without IR (740 nm) excitation): highly cytotoxic
Concentration at which cytotoxic (A549 cells): 1000 nM
Emission maximum [1]: 773 nm
Excitation maximum [1]: 750 nm

CCN1C(=CC=C2CCCC(C=CC3=[N+](CC)c4ccc5ccccc5c4C3(C)C)=C2Cl)C(C)(C)c2c1ccc1ccccc21.Fc1ccc([B-](c2ccc(F)cc2)(c2ccc(F)cc2)c2ccc(F)cc2)cc1 [CyFPhB]
IC50 (A549 cells; [4]): 3.5 µM
Phototoxicity with IR excitation, in words (A549 cells; A549 cells): most phototoxic; also recorded: cause significant cell death with IR excitation; also recorded: highly phototoxic
Phototoxicity with IR excitation, in words (A549 cells; A549 cells, listed as Cy^+ paired with FPhB): phototoxic
IC50 (A549 cells; [5]): 46 µM
Toxicity in words, dark and light (A549 cells; A549 cells): phototoxic but not cytotoxic; also recorded: phototoxic (but not cytotoxic)
Toxicity in the dark, in words (A549 cells; A549 cells): allow cell growth in the dark
Toxicity in the dark, in words (A549 cells; A549 cells, listed as Cy^+ paired with FPhB^−): deactivates the dark cellular toxicity
Mitochondrial superoxide / ROS generation (MitoSOX), in words (mitochondrial superoxide): photo-generating ROS only with illumination; also recorded: photo-generating superoxide only with illumination
Aggregation / nanoparticle behaviour in cell media, in words ([2]; cell media): forms small photoactive nanoparticles in cell media
Average nanoparticle size in cell media ([2]; cell media): < 10 nm
Integrity of salt pairing in cellular environments [2]: maintained in cellular environments

CCN1C(=CC=C2CCCC(C=CC3=[N+](CC)c4ccc5ccccc5c4C3(C)C)=C2Cl)C(C)(C)c2c1ccc1ccccc21.F[P-](F)(F)(F)(F)F [CyPF6]
IC50 (A549 cells; [4]): 0.89 µM
IC50 (A549 cells; [5]): 1.6 µM
Toxicity in words, dark and light (A549 cells; A549 cells): toxic both in the dark and under IR (850 nm) illumination; also recorded: cytotoxic
Toxicity in the dark, in words (A549 cells; A549 cells): cytotoxic
Concentration at which cytotoxic (A549 cells): < 2500 nM
Concentration at which cytotoxic (A549 cells; listed as Cy+ paired with PF6^−): 1600 nM
Mitochondrial superoxide / ROS generation (MitoSOX), in words (mitochondrial superoxide): catalyzing superoxide with or without light
Localization in tumor versus other organs [3]: concentration of the organic salt to the tumor
Aggregation / nanoparticle behaviour in cell media, in words ([2]; cell media): lack of aggregation observed in cell media

CCN1C(=CC=C2CCCC(C=CC3=[N+](CC)c4ccc5ccccc5c4C3(C)C)=C2Cl)C(C)(C)c2c1ccc1ccccc21.FC(F)(F)c1cc([B-](c2cc(C(F)(F)F)cc(C(F)(F)F)c2)(c2cc(C(F)(F)F)cc(C(F)(F)F)c2)c2cc(C(F)(F)F)cc(C(F)(F)F)c2)cc(C(F)(F)F)c1 [CyTFM]
IC50 (A549 cells; [4]): 29 µM
IC50 (A549 cells; [5]): 125 µM
Toxicity in words, dark and light (A549 cells; A549 cells): not toxic to cells in the dark and in the light
Toxicity in the dark, in words (A549 cells; A549 cells): deactivates the dark cellular toxicity
Integrity of salt pairing in cellular environments [2]: maintained in cellular environments

CCN1C(=CC=C2CCCC(C=CC3=[N+](CC)c4ccc5ccccc5c4C3(C)C)=C2Cl)C(C)(C)c2c1ccc1ccccc21.Clc1c(Cl)c(Cl)c2c(c1Cl)O[P-]13(O2)(Oc2c(Cl)c(Cl)c(Cl)c(Cl)c2O1)Oc1c(Cl)c(Cl)c(Cl)c(Cl)c1O3 [CyTRIS]
IC50 (A549 cells; [4]): 1200 µM
IC50 (A549 cells; [5]): 1220 µM
Toxicity in words, dark and light (A549 cells; A549 cells): not toxic to cells in the dark and in the light
Toxicity in the dark, in words (A549 cells; A549 cells): deactivates the dark cellular toxicity
Integrity of salt pairing in cellular environments [2]: maintained in cellular environments

CCN1C(=CC=C2CCCC(C=CC3=[N+](CC)c4ccc5ccccc5c4C3(C)C)=C2Cl)C(C)(C)c2c1ccc1ccccc21 [Cy^+, 2-[2-[2-chloro-3-[2-(1,3-dihydro-3,3-dimethyl-1-ethyl-2H-benz[e]indol-2-ylidene)ethylidene]-1-cylohexen-1-yl]-ethenyl]-3,3-dimethyl-1-ethyl-1H-benz[e]indolium]
Emission maximum [1]: 848 nm
Excitation maximum [1]: 830 nm

[I-].[K+] [KI, reference compound]
Toxicity in words, dark and light (A549 cells; A549 cells): not toxic; also recorded: does not cause toxicity in the dark or with light
